Test results published in article PMC11006503, “New Tin (IV) and Organotin (IV) Complexes with a Hybrid Thiosemicarbazone/Hydrazone Ligand: Synthesis, Crystal Structure, and Antiproliferative Activity” (Bioinorganic Chemistry and Applications, 2024).
Entries after “also recorded” stand apart in the source; their conditions may differ. Read-outs that look alike come from different tables or passages of the source.

Tests used:
Assay type in all cases: cell-based, human
HeLa = assay: MTT cell proliferation assay; settings: 24 h; for IC50: MTT, mean ± SEM
Description: (§1) Four cancerous cell lines (human triple negative breast cancer cell line MDA-MB-231, human cervical cancer cell line HeLa, human prostate cancer cell line PC3, and human liver cancer cell line HepG2) and the human normal lung fibroblast cell line, WI-38, were obtained from the central cell repository of National Centre for Cell Science (NCCS), Pune. The cell lines were cultured in a T25 flask with Dulbecco's modified Eagle medium (DMEM), supplemented with 10% foetal bovine serum, nonessential amino acids, 1 mM sodium pyruvate, 2 mM L-glutamine, 100 mg/L streptomycin, […] penicillin, and 50 mg/L gentamycin in a 37°C humidified incubator containing 5% CO2. […] As DMSO has been used to prepare the different concentrations of the compounds, we have added 0.5% DMSO in the control setup. After the incubation period, media was discarded from the 96-well plates and washed with 1 × PBS solution twice. Then, MTT (100 µL; 0.5 mg/mL) was added to each well and incubated in a humidified incubator containing 5% CO2 at 37°C for 4 h. After discarding the supernatant, the purple-colored formazan crystals formed in the wells were dissolved with 100 μL DMSO per well and the absorbance was estimated at 490 nm using a microplate reader. The experiments were repeated three times, and the cell viability was expressed as a percentage of the control experimental setup. […] For all the MTT assays, three fully independent experiments have been performed, and each experiment has been conducted with biological triplicate samples.

MDA-MB-231 = assay: MTT cell proliferation assay; settings: for IC50: MTT, mean ± SEM, read-out: IC50 MDA-MB231
Description: as §1

PC3 = assay: MTT cell proliferation assay; settings: for IC50: MTT, mean ± SEM
Description: as §1

[1] = tested on: WI-38 normal lung fibroblast cell line; assay: MTT cell proliferation assay; settings: for IC50: normal cell line, MTT, mean ± SEM
Description: as §1

HepG2 = assay: MTT cell proliferation assay; settings: for IC50: MTT, mean ± SEM
Description: as §1

MDA-MB-231 cells [2] = assay: Annexin V-FITC/PI staining apoptosis assay (flow cytometry); settings: for annexin-V-FITC+/PI− (early apoptotic) and annexin V-FITC+/PI+ (late apoptotic) cell population: control 0.01%
Description: Induction of apoptosis was quantified via flow cytometric analysis of control ([…]) and cells treated with complex 3 (0.25 µM, 0.5 µM, and 1 µM) that were stained with annexin V-FITC/PI [50], using the Annexin V-FITC apoptosis detection kit according to the manufacturer's protocol (BD Bioscience). Post treatment cells were harvested with 1 × trypsin and washed in ice 1 × PBS followed by resuspension in 100 µL of 1 × binding buffer solution supplied within the kit. Finally, cells were incubated with 5 μL of annexin V-FITC and 5 μL of PI for 15 min at room temperature in the dark before acquiring data using BD FACSVerse flow cytometer (BD Biosciences, San Jose, CA). Annexin V/FITC positive cells were regarded as apoptotic cells analyzed using Cell Quest software (BD Biosciences).

MDA-MB-231 cells [3] = assay: Mitochondrial membrane potential by JC1 staining (fluorescence microscopy and flow cytometry); settings: for cellular population with increase in JC1 green fluorescence intensity (flow cytometry): control 3.93%
Description: The changes in mitochondrial membrane permeability were determined by JC1 (molecular probes). MDA-MB-231 cells were treated with compound 3 (0.25 µM, 0.5 µM, and 1 µM) for the indicated time period, harvested, washed twice in 1 × PBS, resuspended in PBS supplemented with JC1 dye (3 µM final concentration), and incubated for 15 min in the dark at 37°C and flow cytometric analysis was immediately performed using a FACSVerse instrument (BD) or images were captured with fluorescent microscope (Leica).

MDA-MB-231 cells [4] = assay: Cellular ROS measurement using DCFDA (fluorescence microscopy and flow cytometry)
Description: To measure the production of intercellular reactive oxygen species (ROS) produced by treatment with complex 3, the DCFDA method was used. MDA-MB-231 cells were seeded in a 6-well plate and treated with complex 3 (0.25 µM, 0.5 µM, and 1 µM) for 24 h using arsenic as a positive control agent and NAC as negative control. Post treatment, the media was discarded and incubated with 10 µM H2DCFDA for 30 min at 37°C. For fluorescence imaging, cells incubated with H2DCFDA were washed, resuspended in 1 × PBS, and directly imaged under a fluorescence microscope (Leica). For flow cytometric analysis, cells were then trypsinized, washed with 1 × PBS, and collected in centrifuge tubes. DCF fluorescence was measured using BD FACSVerse flow cytometer (BD Biosciences) and analyzed using Cell Quest software (BD Biosciences).

MDA-MB-231 cells [5] = assay: Cell cycle profiling by propidium iodide staining (flow cytometry); settings: 1.0 µM, 24 h, mean ± SEM
Description: MDA-MB-231 cells were seeded at a density of 1 × 10^6 cells/mL in each Petri dish for 24 h. Thereafter, the cells were treated with increasing concentration of complex 3 (0.25 µM, 0.5 µM, and 1 µM) for 24 h and 0.5% DMSO was added in the control setup. Post treatment, cells were harvested into single cell suspension and fixed by 75% ethanol for 24 h. at −20°C. After centrifugation, the cells pellets were resuspended in 1 × PBS followed by RNaseA (20 μM) treatment for 2 h at 37°C. Finally, propidium iodide was added and incubated at room temperature for 20 min. Subsequently, the samples were measured using BD FACSVerse flow cytometer (BD Biosciences, San Jose, CA) and analyzed using BD FACS DIVA software.

N.N.[Cl][Pt][Cl] [Cisplatin, cisplatin, reference compound]
IC50 (HeLa): 3.26 ± 0.23 µM | IC50 (MDA-MB-231; 24 h): 8.25 ± 1.64 µM | IC50 (PC3; 24 h): 5.36 ± 1.24 µM | IC50 ([1]; 24 h): 20.6 ± 1.52 µM | IC50 (HepG2; 24 h): 11.5 ± 2.06 µM | early apoptotic cell population (LR quadrant) (MDA-MB-231 cells [2]; 8 µM, positive control): 44.46% | late apoptotic cell population (UR quadrant) (MDA-MB-231 cells [2]; 8 µM, positive control): 18.52% | JC1 aggregate/JC1 monomer fluorescence intensity ratio (fluorescence microscopy) (MDA-MB-231 cells [3]; 8 µM): 0.25 ± 0.06

CC(=N\NC(=O)c1ccncc1)/C(C)=N/NC(N)=S [L ^ 1 H 2, Diacetyl-2-(Thiosemicarbazone)-3-(Isonicotinichydrazone)]
IC50 (HeLa; Homo sapiens, HeLa): 1.06 ± 0.21 µM | IC50 (MDA-MB-231; Homo sapiens, MDA-MB-231, 24 h): 2.42 ± 0.33 µM | IC50 (PC3; Homo sapiens, PC-3, 24 h): 4.86 ± 0.75 µM | IC50 ([1]; Homo sapiens, WI-38, 24 h): 10.8 ± 0.96 µM | IC50 (HepG2; Homo sapiens, HepG2, 24 h): 5.14 ± 0.52 µM

CC(=N\NC(=O)c1ccncc1)/C(C)=N/NC(N)=S [[L ^ 1 H 3 ]Cl] [Diacetyl-2-(Thiosemicarbazone)-3-(Isonicotinichydrazonium) Chloride]
IC50 (HeLa): 1.49 ± 0.46 µM | IC50 (MDA-MB-231; 24 h): 2.48 ± 0.47 µM | IC50 (PC3; 24 h): 3.49 ± 0.73 µM | IC50 ([1]; 24 h): 14.1 ± 0.48 µM | IC50 (HepG2; 24 h): 6.27 ± 0.98 µM

[As] [arsenic, reference compound]
mean fluorescence intensity (MFI), fold change in comparison with the control (H2DCFDA, flow cytometry) (MDA-MB-231 cells [4]; 1 µM, 24 h): 4.91 ± 0.05 fold | fold increase of green fluorescence intensity (H2DCFDA, fluorescence microscopy) (MDA-MB-231 cells [4]; positive control, concentration not given): 4.28 ± 0.09 fold

CC1=[N+]2N=C(N)[S][Sn-2]23([CH3])([CH3])[O]C(c2ccncc2)=N[N+]3=C1C [complex 1, [SnMe2L^1]n]
IC50 (HeLa): 2.22 ± 0.54 µM | IC50 (MDA-MB-231; 24 h): 3.54 ± 0.34 µM | IC50 (PC3; 24 h): 2.76 ± 0.52 µM | IC50 ([1]; 24 h): 15.6 ± 0.73 µM | IC50 (HepG2; 24 h): 4.97 ± 0.76 µM

CC1=[N+]2N=C(N)[S][Sn-2]23([c]2ccccc2)([c]2ccccc2)[O]C(c2ccncc2)=N[N+]3=C1C [complex 3, [SnPh2L^1]n]
G2/M cell population (G2/M arrest) (MDA-MB-231 cells [5]): 56.07% | Percentage of cell viability Hela (HeLa; 0.25 µM): 70% | Percentage of cell viability Hela (HeLa; 0.5 µM): 46.24% | Percentage of cell viability Hela (HeLa; 1 µM): 30.21% | Percentage of cell viability Hela (HeLa; 2 µM): 25.19% | Percentage of cell viability Hela (HeLa; 5 µM): 20.16% | Percentage of cell viability MDA-MB 231 (MDA-MB-231; 0.25 µM, 24 h): 65.43% | Percentage of cell viability MDA-MB 231 (MDA-MB-231; 0.5 µM, 24 h): 50.06% | Percentage of cell viability MDA-MB 231 (MDA-MB-231; 1 µM, 24 h): 28.63% | Percentage of cell viability MDA-MB 231 (MDA-MB-231; 2 µM, 24 h): 20.19% | Percentage of cell viability MDA-MB 231 (MDA-MB-231; 5 µM, 24 h): 18.37% | IC50 (MDA-MB-231; 24 h): 0.51 ± 0.13 µM | Percentage of cell viability PC3 (PC3; 0.25 µM, 24 h): 82.17% | Percentage of cell viability PC3 (PC3; 0.5 µM, 24 h): 76.09% | Percentage of cell viability PC3 (PC3; 1 µM, 24 h): 60.16% | Percentage of cell viability PC3 (PC3; 2 µM, 24 h): 48.24% | Percentage of cell viability PC3 (PC3; 5 µM, 24 h): 35.73% | IC50 (PC3; 24 h): 1.97 ± 0.24 µM | Percentage of cell viability WI-38 ([1]; 0.25 µM, 24 h): 98.36% | Percentage of cell viability WI-38 ([1]; 0.5 µM, 24 h): 95.32% | Percentage of cell viability WI-38 ([1]; 1 µM, 24 h): 80.17% | Percentage of cell viability WI-38 ([1]; 2 µM, 24 h): 76.21% | Percentage of cell viability WI-38 ([1]; 5 µM, 24 h): 70.24% | IC50 ([1]; 24 h): 15.7 ± 0.28 µM | Percentage of cell viability HepG2 (HepG2; 0.25 µM, 24 h): 80.36% | Percentage of cell viability HepG2 (HepG2; 0.5 µM, 24 h): 70.36% | Percentage of cell viability HepG2 (HepG2; 1 µM, 24 h): 58.39% | Percentage of cell viability HepG2 (HepG2; 2 µM, 24 h): 45.27% | Percentage of cell viability HepG2 (HepG2; 5 µM, 24 h): 30.68% | IC50 (HepG2; 24 h): 1.59 ± 0.17 µM | mean fluorescence intensity (MFI), fold change in comparison with the control (H2DCFDA, flow cytometry) (MDA-MB-231 cells [4]; 0.25 µM, 24 h): 1.47 ± 0.17 fold | mean fluorescence intensity (MFI), fold change in comparison with the control (H2DCFDA, flow cytometry) (MDA-MB-231 cells [4]; 0.5 µM, 24 h): 2.58 ± 0.23 fold | ROS generation / MFI in cells pretreated with N-acetylcysteine (NAC) (MDA-MB-231 cells [4]; 1 µM, 10 mM NAC pretreatment, compared to complex 3 alone): reduce the generation of ROS; also recorded: decrease in the MFI value | fold increase in fluorescence intensity in comparison to control (H2DCFDA, fluorescence microscopy) (MDA-MB-231 cells [4]; 1 µM, 24 h): 3.57 ± 0.08 fold | mean fluorescence intensity (MFI), fold change in comparison with the control (H2DCFDA, flow cytometry) (MDA-MB-231 cells [4]; 1 µM, 24 h): 4.73 ± 0.14 fold | early apoptotic cell population (LR quadrant) (MDA-MB-231 cells [2]; 0.25 µM, 24 h): 15.99% | late apoptotic cell population (UR quadrant) (MDA-MB-231 cells [2]; 0.25 µM, 24 h): 5.24% | annexin-V-FITC+/PI− (early apoptotic) and annexin V-FITC+/PI+ (late apoptotic) cell population (MDA-MB-231 cells [2]; 0.25 µM, 24 h): 21.23% | early apoptotic cell population (LR quadrant) (MDA-MB-231 cells [2]; 0.5 µM, 24 h): 36.25% | late apoptotic cell population (UR quadrant) (MDA-MB-231 cells [2]; 0.5 µM, 24 h): 21.56% | annexin-V-FITC+/PI− (early apoptotic) and annexin V-FITC+/PI+ (late apoptotic) cell population (MDA-MB-231 cells [2]; 0.5 µM, 24 h): 57.81% | early apoptotic cell population (LR quadrant) (MDA-MB-231 cells [2]; 1 µM, 24 h): 32.32% | late apoptotic cell population (UR quadrant) (MDA-MB-231 cells [2]; 1 µM, 24 h): 34.15% | annexin-V-FITC+/PI− (early apoptotic) and annexin V-FITC+/PI+ (late apoptotic) cell population (MDA-MB-231 cells [2]; 1 µM, 24 h): 66.47% | necrotic cell population zone (MDA-MB-231 cells [2]; 0.25, 0.5 and 1 µM, 24 h): No significant cell population | JC1 aggregate/JC1 monomer fluorescence intensity ratio (fluorescence microscopy) (MDA-MB-231 cells [3]; 0.25 µM, 24 h): 1.36 ± 0.78 | cellular population with increase in JC1 green fluorescence intensity (flow cytometry) (MDA-MB-231 cells [3]; 0.25 µM, 24 h): 37.47% | cellular population with increase in JC1 green fluorescence intensity (flow cytometry) (MDA-MB-231 cells [3]; 0.5 µM, 24 h): 52.22% | JC1 aggregate/JC1 monomer fluorescence intensity ratio (fluorescence microscopy) (MDA-MB-231 cells [3]; 1 µM, 24 h): 0.27 ± 0.13 | cellular population with increase in JC1 green fluorescence intensity (flow cytometry) (MDA-MB-231 cells [3]; 1 µM, 24 h): 74.51%
